Measured values as given in patent US7557244B2, “Substituted biphenyl carboxylic acids and derivatives thereof” (Ortho-McNeil Pharmaceutical, Inc., priority 2006, dated 2009).

How the values were obtained:
γ-secretase = experiment: Screening for γ-secretase-modulating activity, Aβ 42 in SKNBE2 cells carrying APP 695-wild type; format: cell-based; settings: for EC50: read-out: WTAPP SKNBE2 Aβ 42 EC50
Protocol: Screening of the Compounds of the Invention for γ-Secretase-Modulating Activity
Screening was carried out using SKNBE2 cells carrying the APP 695-wild type, grown in DMEM/NUT-mix F12 (HAM) provided by Gibco (cat no. 31330-38) containing 5% Serum/Fe supplemented with 1% non-essential amino acids.
Cells were grown to near confluency.
The screening was performed using the assay as described in Citron et al (1997) Nature Medicine 3: 67.
IC50-Values of Selected Compounds of the Invention on the γ-Secretase Activity.

Aβ 42 [1] = experiment: In vivo Aβ 42 lowering, mouse; settings: oral dose 30 mg/kg at 4 hr time point
Description: (§1) To determine whether acute administration of an Aβ42 lowering agent would reduce Aβ42 levels in vivo, non-transgenic rodents, e.g. mice or rats can be used. Alternatively, two to three month old Tg2576 mice expressing APP695 containing the “Swedish” variant can be used or a transgenic mouse model developed by Dr. Fred Van Leuven (K. U. Leuven, Belgium) and co-workers, with neuron-specific expression of a clinical mutant of the human amyloid precursor protein [V717I] (Moechars et al., 1999 J. Biol. Chem. 274, 6483). […] Animals of this age have high levels of Aβ in the brain but no detectable Aβ deposition. Mice treated with the Aβ42 lowering agent will be examined and compared to those untreated or treated with vehicle and brain levels of soluble Aβ42 and total Aβ would be quantitated by standard techniques, for example, using ELISA. Treatment periods may vary from hours to days and will be adjusted based on the results of the Aβ42 lowering once a time course of onset of effect can be established.
A typical protocol for measuring Aβ42 lowering in vivo is shown but it is only one of many variations that could be used to optimize the levels of detectable Aβ. For example, aliquots of compounds can be dissolved in DMSO (volume equal to 1/10th of the final formulation volume), vortexed and further diluted (1:10) with a 10% (w/v) hydroxypropyl β cyclodextrin (HBC, Aldrich, Ref No 33,260-7) solution in PBS, where after they are sonicated for 20 seconds.
Aβ42 lowering agents may be administered as a single oral dose given three to four hours before sacrifice and analysis or alternatively could be given over a course of days and the animals sacrificed three to four hours after the final dose is given.
Blood is collected at sacrifice. The blood collection is performed via a heart puncture during anesthesia with a mixture of Ketalar (Ketamin), Rompun (Xylazin 2%) and Atropin (2:1:1) and collected in EDTA treated collection tubes. Blood is centrifuged at 4000 g for 5 minutes at 4° C. and the plasma recovered for analysis. […]

Aβ 42 [2] = experiment: In vivo Aβ 42 lowering, rat; settings: oral dose 30 mg/kg at 4 hr time point
Description: as §1
A typical protocol for measuring Aβ42 lowering in vivo is shown but it is only one of many variations that could be used to optimize the levels of detectable Aβ. […]

EC50 (γ-secretase) [nM]	SMILES	WTAPP SKNBE2 Aβ 42 % Inhibition at 3 μM (γ-secretase) [%]	also measured
330	CC(C)CC(C(=O)O)c1cc(Oc2cc(F)cc(C(F)(F)F)c2)cc(-c2ccc(C(F)(F)F)cc2)c1 (centres unmarked) [Compound 30, 2-[5-(3-Fluoro-5-trifluoromethyl-phenoxy)-4′-trifluoromethyl-biphenyl-3-yl]-4-methyl-pentanoic acid]		Mouse Efficacy % Lowering Aβ 42 (Aβ 42 [1]): 43%
460	CC(C)CC(C(=O)O)c1cc(Nc2cc(C(F)(F)F)cc(C(F)(F)F)c2)cc(-c2ccc(Cl)c(C(F)(F)F)c2)c1 (centres unmarked) [Compound 37, 2-[5-(3,5-Bis-trifluoromethyl-phenylamino)-4′-chloro-3′-trifluoromethyl-biphenyl-3-yl]-4-methyl-pentanoic acid]		
110	CC(C)CC(C(=O)O)c1cc(Nc2cc(F)cc(C(F)(F)F)c2)cc(-c2ccc(Cl)c(C(F)(F)F)c2)c1 (centres unmarked) [Compound 38, 2-[4′-Chloro-5-(3-fluoro-5-trifluoromethyl-phenylamino)-3′-trifluoromethyl-biphenyl-3-yl]-4-methyl-pentanoic acid]		
330	CC(C)CC(C(=O)O)c1cc(Nc2cc(C(F)(F)F)ccc2C(F)(F)F)cc(-c2cc(F)cc(C(F)(F)F)c2)c1 (centres unmarked) [Compound 40, 2-[5′-Fluoro-5-(2,5-bis-trifluoromethyl-phenylamino)-3′-trifluoromethyl-biphenyl-3-yl]-4-methyl-pentanoic acid]		
240	CC(C)CC(C(=O)O)c1cc(Nc2cc(C(F)(F)F)ccc2C(F)(F)F)cc(-c2cc(C(F)(F)F)cc(C(F)(F)F)c2)c1 (centres unmarked) [Compound 44, 2-[5-(2,5-Bis-trifluoromethyl-phenylamino)-3′,5′-bis-trifluoromethyl-biphenyl-3-yl]4-methyl-pentanoic acid]		
100	CC(C)C[C@@H](C(=O)O)c1cc(Nc2cc(C(F)(F)F)ccc2C(F)(F)F)cc(-c2ccc(C(F)(F)F)cc2)c1 [Compound 46, (R)2-[5-(2,5-Bis-trifluoromethyl-phenylamino)-4′-trifluoromethyl-biphenyl-3-yl]-4-methyl-pentanoic acid]		Mouse Efficacy % Lowering Aβ 42 (Aβ 42 [1]): 18%; Rat Efficacy % Lowering Aβ 42 (Aβ 42 [2]): 30%

Further lines, the compound ahead of its results:

SMILES	EC50 (γ-secretase) [nM]	WTAPP SKNBE2 Aβ 42 % Inhibition at 3 μM (γ-secretase) [%]	also measured
CC(C)CC(C(=O)O)c1cc(Oc2cc(F)cc(C(F)(F)F)c2)cc(-c2ccc(Cl)c(C(F)(F)F)c2)c1 (centres unmarked) [Compound 21, 4-Methyl-2-[4′-chloro-3′-trifluoromethyl-5-(3-fluoro-5-trifluoromethylphenoxy)-biphenyl-3-yl]-pentanoic acid]	140		Mouse Efficacy % Lowering Aβ 42 (Aβ 42 [1]): 25%
CC(C)CC(C(=O)O)c1cc(Oc2cc(F)cc(F)c2)cc(-c2cc(C(F)(F)F)cc(C(F)(F)F)c2)c1 (centres unmarked) [Compound 36, 2-[5-(3,5-Difluoro-phenoxy)-3′,5′-bis-trifluoromethyl-biphenyl-3-yl]-4-methyl-pentanoic acid]		90	
CC(C)CC(C(=O)O)c1cc(Nc2cc(C(F)(F)F)ccc2C(F)(F)F)cc(-c2ccc(Cl)c(C(F)(F)F)c2)c1 (centres unmarked) [Compound 39, 2-[4′-Chloro-5-(2,5-bis-trifluoromethyl-phenylamino)-3′-trifluoromethyl-biphenyl-3-yl]-4-methyl-pentanoic acid]		95	
CC(C)CC(C(=O)O)c1cc(Nc2ccc(F)cc2C(F)(F)F)cc(-c2cc(F)cc(C(F)(F)F)c2)c1 (centres unmarked) [Compound 41, 2-[5′-Fluoro-5-(4-fluoro-2-trifluoromethyl-phenylamino)-3′-trifluoromethyl-biphenyl-3-yl]-4-methyl-pentanoic acid]		67	
CC(C)CC(C(=O)O)c1cc(Nc2cc(C(F)(F)F)cc(C(F)(F)F)c2)cc(-c2cc(F)cc(C(F)(F)F)c2)c1 (centres unmarked) [Compound 42, 2-[5′-Fluoro-5-(3,5-bis-trifluoromethyl-phenylamino)-3′-trifluoromethyl-biphenyl-3-yl]-4-methyl-pentanoic acid]		75	
CC(C)CC(C(=O)O)c1cc(Nc2cc(C(F)(F)F)cc(C(F)(F)F)c2)cc(-c2cc(C(F)(F)F)cc(C(F)(F)F)c2)c1 (centres unmarked) [Compound 43, 2-[5-(3,5-Bis-trifluoromethyl-phenylamino)-3′,5′-bis-trifluoromethyl-biphenyl-3-yl]-4-methyl-pentanoic acid]		89	
CC(C)CC(C(=O)O)c1cc(Nc2ccc(F)cc2C(F)(F)F)cc(-c2cc(C(F)(F)F)cc(C(F)(F)F)c2)c1 (centres unmarked) [Compound 45, 2-[5-(4-Fluoro-2-trifluoromethyl-phenylamino)-3′,5′-bis-trifluoromethyl-biphenyl-3-yl]-4-methyl-pentanoic acid]		85	
